ChEMBL document CHEMBL1201862, “PubChem BioAssay data set” (2004)
The source made the active and inactive calls. Cut-off read from the data, not from the text of the source: actives have a measured EC50 and inactives only a lower limit.

Tests used:
[1] = target: T1, Corticotropin-releasing factor receptor 2/Corticotropin-releasing factor-binding protein (Homo sapiens, UniProt P24387+Q13324); test: activators of CRF receptor 2 with binding protein – uHTS hits, confirmation (AID 602473); format: functional; settings: read-out: EC50_Mean
T1 sequence (Q13324 whole entry): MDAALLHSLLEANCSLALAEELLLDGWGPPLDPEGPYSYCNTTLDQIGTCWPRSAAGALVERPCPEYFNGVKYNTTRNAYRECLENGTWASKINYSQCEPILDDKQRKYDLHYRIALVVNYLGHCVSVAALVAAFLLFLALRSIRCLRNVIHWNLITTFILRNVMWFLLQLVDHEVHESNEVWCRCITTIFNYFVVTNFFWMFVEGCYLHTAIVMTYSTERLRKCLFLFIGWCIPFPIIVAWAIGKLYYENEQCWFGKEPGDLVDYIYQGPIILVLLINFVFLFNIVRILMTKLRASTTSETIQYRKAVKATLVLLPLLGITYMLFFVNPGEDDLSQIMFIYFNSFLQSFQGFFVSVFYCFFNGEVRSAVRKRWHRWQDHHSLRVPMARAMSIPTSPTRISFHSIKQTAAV
T1 sequence (P24387 whole entry): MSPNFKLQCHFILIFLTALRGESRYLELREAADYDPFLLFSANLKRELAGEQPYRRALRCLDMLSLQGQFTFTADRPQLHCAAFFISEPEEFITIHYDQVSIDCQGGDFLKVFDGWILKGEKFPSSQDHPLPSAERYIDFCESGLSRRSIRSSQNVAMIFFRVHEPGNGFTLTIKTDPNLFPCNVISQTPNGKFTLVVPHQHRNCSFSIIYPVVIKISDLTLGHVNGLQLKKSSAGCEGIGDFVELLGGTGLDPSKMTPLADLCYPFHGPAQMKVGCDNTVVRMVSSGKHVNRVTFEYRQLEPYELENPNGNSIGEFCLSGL

[2] = Luminescence Cell-Based Dose Response HTS to Identify Activators of Luciferase Translation or Activity in H4 […] Cells. [Related pubchem assays: 1829 (Project Summary), 1814 (Primary HTS)]; format: functional
[3] = Luminescence Cell-Based Dose Confirmation HTS to Identify Activators of 5'UTR Stem-Loop Driven Alpha-Synuclein mRNA Translation in H4 Neuroglioblastoma Cells. [Related pubchem assays: 1829 (Project Summary), 1814 (Primary HTS)]; format: functional
H4 = test: Luminescence Cell-Based Dose Response HTS to Identify Activators of 5'UTR Stem-Loop Driven Prion Protein mRNA Translation in H4 Neuroglioblastoma Cells. [Related pubchem assays: 1829 (Project Summary), 1814 (Primary HTS)]; format: functional; settings: Homo sapiens
[4] = target: T2, Heat shock factor protein 1 (Mus musculus, UniProt P38532); test: enhancement of HSF1-driven luciferase signal – cell-based, NIH3T3, luminescence, dose retest, confirmation (AID 435004); format: functional;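 note: stress induced by proteasome inhibitor MG132 added 30 min after compound; luciferase reporter driven by HSF1 response element in NIH3T3 cells; actives raise luminescence as potentiators of the MG132 stress response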
T2 sequence (P38532 whole entry): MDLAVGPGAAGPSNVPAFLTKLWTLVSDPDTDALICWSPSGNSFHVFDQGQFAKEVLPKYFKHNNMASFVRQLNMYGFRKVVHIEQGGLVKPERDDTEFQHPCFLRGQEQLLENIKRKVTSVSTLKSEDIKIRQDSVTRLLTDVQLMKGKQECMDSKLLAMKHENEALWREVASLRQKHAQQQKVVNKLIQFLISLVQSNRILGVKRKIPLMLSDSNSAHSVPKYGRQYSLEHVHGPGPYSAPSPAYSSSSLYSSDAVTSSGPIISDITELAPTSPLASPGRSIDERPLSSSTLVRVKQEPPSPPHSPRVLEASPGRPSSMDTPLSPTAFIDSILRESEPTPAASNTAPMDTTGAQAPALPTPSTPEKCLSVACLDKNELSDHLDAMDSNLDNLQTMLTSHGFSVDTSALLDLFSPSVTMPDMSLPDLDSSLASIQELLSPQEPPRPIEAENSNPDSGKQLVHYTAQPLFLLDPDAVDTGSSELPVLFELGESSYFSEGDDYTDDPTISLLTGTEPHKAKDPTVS

[5] = target: T2, Heat shock factor protein 1; test: decrease of HSF1-responsive luciferase luminescence – cell-based, NIH3T3, dose retest, confirmation (AID 2382); format: functional;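 note: NIH3T3 fibroblasts with HSF1-driven luciferase reporter stressed by proteasome inhibitor MG132; luminescence from HSF1-driven luciferase expression after 8 hours of MG132 stress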
[6] = NIH-3T3 fibroblast cytotoxicity, dose response, cytotoxicity control, cell-based, fluorescence, Alamar Blue, secondary assay (AID 2327); format: functional;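 note: NIH-3T3 mouse fibroblasts cultured with fluconazole at 8 µg/mL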
Streptococcus = test: GAS UMAA2166 growth inhibition – luminescence, BacTiterGlo, counter-screen for streptokinase expression inhibitor project, dose response (AID 1915); format: functional, organism-based;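 note: potency for reduction of bacterial viability or growth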
[7] = tested on: Streptococcus sp. 'group A'; test: Streptococcus pyogenes SK(-)GAS viability under kanamycin – luminescence, BacTiterGlo, confirmation, counter-screen for streptokinase expression inhibitor project, dose response (AID 1900); format: functional, organism-based

For O=C(NC(C(=O)N/N=C/c1cccnc1)c1nnc(O)c2ccccc12)c1ccccc1 (configuration not stated), the EC50 [1] was 7.94 µM (active).
For Cc1nn(C(=O)c2ccoc2C)c(N)c1-c1ccccc1, the EC50 [2] was 26.9 µM (active), the EC50 [3] was 5.93 µM (active) and the EC50 (H4) was 21.6 µM (active).
With COc1ccc(OC)c(S(=O)(=O)Nc2ccccc2O)c1 the EC50 [4] was > 260 µM (inactive).
For COc1ccc(C(NC(=O)c2ccc(O)nc2)C(=O)Nc2ccc(C(C)C)cc2)cc1 (configuration not stated), the EC50 [1] was > 53 µM (inactive) and the EC50 [5] was > 195 µM (not active).
With Nc1c(-c2ccsc2)cnc2ncnn12 the EC50 [4] was > 260 µM (inactive).
For CC(c1ccccc1C(O)(c1ccccc1)c1ccccc1)N(C)C (configuration not stated), the EC50 [1] was 4.62 µM (active).
For Cc1ccc(-c2nc(-c3cccnc3)no2)c(C)c1, the EC50 [6] was > 150 µM (inactive).
For S=C(c1cn(Cc2ccc(Br)cc2)c2ccccc12)N1CCOCC1, the EC50 [4] was > 260 µM (inactive).
In the case of NC(=NOC(=O)c1cccc([N+](=O)[O-])c1)c1cccnc1, the EC50 [2] was 7.46 µM (inconclusive), the EC50 [3] was 3.61 µM (active) and the EC50 (H4) was > 120 µM (not active).
For COc1ccc(NC(=O)C(NCC(C)C)c2ccccc2)cc1Cl (configuration not stated), the EC50 [4] was > 260 µM (inactive).
For CC(=O)C1=NOC(CNc2ncc(C(F)(F)F)cc2Cl)C1 (configuration not stated), the EC50 [2] was 17 µM (active), the EC50 [3] was 15.7 µM (active) and the EC50 (H4) was 16.2 µM (active).
In the case of CCOC(=O)c1c(C)n[nH]c1N/N=C/c1cccnc1, the EC50 [2] was 14.7 µM (active), the EC50 [3] was > 120 µM (not active) and the EC50 (H4) was > 120 µM (not active).
For CCOc1ccc(NC(=O)C(S)=NC2CCCCC2)cc1, the EC50 [2] was 21.1 µM (active), the EC50 [3] was 61.6 µM (active) and the EC50 (H4) was 11 µM (active).
With COc1ccc(-c2nnc3ccc(SCC(=O)NCC4CCCO4)nn23)cc1 (configuration not stated) the EC50 [4] was > 260 µM (inactive).
For CCOc1ccc(N2C(=O)/C(=C\NNC(=O)C3COc4ccccc4O3)c3ccccc3C2=O)cc1 (configuration not stated), the EC50 (Streptococcus) was 5.75 µM (active) and the EC50 [7] was 1.63 µM (active).
With CC(C)CC1NC(=O)N(CC(=O)c2ccc3c(c2)OCCO3)C1=O (configuration not stated) the EC50 [2] was 1.48 µM (active), the EC50 [3] was 0.298 µM (active) and the EC50 (H4) was 6.39 µM (active).
With C=CCn1c(C)cc(C(=O)CSc2nc(N)cc(N)n2)c1C the EC50 [4] was > 260 µM (inactive).
For CC(=O)c1ccc(N2CCN(C(=O)c3[nH]nc4ccccc34)CC2)cc1, the EC50 [4] was > 260 µM (inactive).
In the case of COc1ccc(COc2cc(-c3cccc(OC)c3)nc3ccc(NC(=O)C(C)C)cc23)cc1, the EC50 [2] was > 120 µM (not active), the EC50 [3] was > 120 µM (not active) and the EC50 (H4) was > 120 µM (not active).
In the case of CC(=O)N1c2ccc(S(=O)(=O)N3CCC(C(=O)NCc4ccccc4Cl)CC3)cc2CC1C (configuration not stated), the EC50 [2] was > 120 µM (not active), the EC50 [3] was > 120 µM (not active) and the EC50 (H4) was > 120 µM (not active).
For CCC1Oc2ccc(C)cc2N(Cc2cccc(C)c2)C1=O (configuration not stated), the EC50 [4] was > 260 µM (inactive).
For CCOC(=O)/C(=C\c1ccc(N2CCC(c3ccccc3)=N2)cc1)C(C)=O, the EC50 [1] was 7.05 µM (active).
For O=C(COc1ccccc1)NC(=S)Nc1cccc2cc(O)ccc12, the EC50 [4] was > 260 µM (inactive).
With CC/C(=N/Cc1ccc(Cl)c(Cl)c1)c1nc(-c2ccco2)oc1O the EC50 [4] was 20 µM (active).
With CN(Cc1ccc(OC(F)F)cc1)Cc1nc(O)c2cc(Br)cc(Br)c2n1 the EC50 (Streptococcus) was > 150 µM (not active) and the EC50 [7] was 4.31 µM (active).
With COC(=O)c1ccc(OC(=O)CCN2C(=O)C3CCCCC3C2=O)cc1 (configuration not stated) the EC50 [4] was > 260 µM (inactive).
For Cc1ccc(C(=O)NNC(=O)c2ccccc2-n2cccc2)cc1, the EC50 [4] was > 260 µM (inactive).
In the case of Cc1ccc2nsnc2c1NC(=O)COc1ccccc1F, the EC50 [6] was > 150 µM (inconclusive).
